Reference: US12492173B2, “Herbicidal substituted N-tetrazolyl aryl carboxamides” (Bayer Aktiengesellschaft, priority 2019, dated 2025)

How the values were obtained:
Type in all cases: in vivo
[1] = system: Avena fatua; experiment: Post-emergence herbicidal action, AVEFA; set-up: key: % herbicidal action vs untreated; 100 = plants died, 0 = like control
Summary of the method: (§1)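 After sowing into sandy loam, plants grew 2 to 3 weeks under greenhouse conditions until one leaf, then got a spray of compound as aqueous suspension or emulsion. Roughly three weeks on, activity was estimated visually against untreated pots.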

[2] = system: Veronica persica; experiment: Post-emergence herbicidal action, VERPE; set-up: key: % herbicidal action vs untreated; 100 = plants died, 0 = like control
Summary of the method: as §1

[3] = system: Amaranthus retroflexus; experiment: Pre-emergence herbicidal action, AMARE; conditions: dosage 320 g/ha, scored visually after 3 weeks vs untreated controls (100% = plants have died)
Summary of the method: (§2)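 Greenhouse pre-emergence test: formulated compound (WP or EC) applied in water to the soil covering sown seeds, 600–800 l/ha, 0.2% wetting agent. Scored visually in percent at 3 weeks versus untreated plants.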

[4] = system: Pharbitis purpurea; experiment: Post-emergence herbicidal action, PHBPU
Summary of the method: as §1

[5] = system: Veronica persica; experiment: Pre-emergence herbicidal action, VERPE; set-up: key to Herbicidal action against VERPE: % activity: 100 = plants have died, 0 = like control plants; conditions: for herbicidal activity VERPE: dosage 320 g/ha, scored visually after 3 weeks vs untreated controls (100% = plants have died)
Summary of the method: as §2

[6] = system: Setaria viridis; experiment: Pre-emergence herbicidal action, SETVI; set-up: key to Herbicidal action against SETVI: % activity: 100 = plants have died, 0 = like control plants; conditions: for herbicidal activity SETVI: dosage 320 g/ha, scored visually after 3 weeks vs untreated controls (100% = plants have died)
Summary of the method: as §2

[7] = comparative experiment, 20 g of a.i./ha

| Structure (SMILES) | herbicidal action AVEFA ([1]; Dosage 80 g/ha) | herbicidal action VERPE ([2]; Dosage 80 g/ha) | herbicidal activity AMARE [3] [%] | herbicidal action PHBPU ([4]; Dosage 80 g/ha) | herbicidal activity VERPE [5] [%] | herbicidal activity SETVI [6] [%] | herbicidal action AVEFA ([1]; post-emergence, dosage 80 g/ha) [%] | herbicidal action VERPE ([2]; post-emergence, dosage 80 g/ha) [%] | herbicidal action PHBPU ([4]; post-emergence, dosage 80 g/ha) [%] | Herbicidal action against VERPE [5, 7] | Herbicidal action against SETVI [6, 7] | Herbicidal action against PHBPU ([4]; comparative experiment, post-emergence, 5 g of a.i./ha) |
| --- | --- | --- | --- | --- | --- | --- | --- | --- | --- | --- | --- | --- |
| CCCn1nnnc1NC(=O)c1ccc(C(F)(F)F)c(CSCC)c1Br [Example 3-383] | 90 | 100 | 100 | 90 | 100 | 100 | – | – | – | – | – | – |
| C=CCSCc1c(C(F)(F)F)ccc(C(=O)Nc2nnnn2C)c1Cl [Example 1-308] | – | – | 100 | – | 100 | 100 | 100 | 80 | 100 | – | – | – |
| CCS(=O)(=O)Cc1c(C(F)(F)F)ccc(C(=O)Nc2nnnn2C)c1Cl [Example 1-301] | 100 | 100 | 100 | 100 | 100 | 100 | – | – | – | – | – | – |
| CSCc1c(C(F)(F)F)ccc(C(=O)Nc2nnnn2C)c1F [Example 1-242] | 80 | 100 | 100 | 100 | 100 | 100 | – | – | – | – | – | – |
| CCCn1nnnc1NC(=O)c1ccc(C(F)F)c(CSC)c1C [Example 3-107] | 80 | 100 | 100 | 80 | 100 | 100 | – | – | – | – | – | – |
| Cn1nnnc1NC(=O)c1ccc(C(F)(F)F)c(CS(C)(=O)=O)c1Br [Example 1-382, 2-bromo-3-[(methylsulfonyl)methyl]-N-(1-methyl-1H-tetrazol-5-yl)-4-(trifluoromethyl)benzamide] | 100 | 100 | 100 | 100 | 100 | 100 | – | – | – | 100 | – | – |
| CCn1nnnc1NC(=O)c1ccc(C(F)(F)F)c(C[S+](C)[O-])c1OC (stereo not drawn) [Example 2-135] | 100 | 100 | 100 | 100 | 100 | 100 | – | – | – | – | – | – |
| CCCn1nnnc1NC(=O)c1ccc(C(F)(F)F)c(CSC)c1OC [Example 3-134] | 90 | 100 | 100 | 100 | 100 | 100 | – | – | – | – | – | – |
| CCCn1nnnc1NC(=O)c1ccc(C(F)(F)F)c(C[S+](C)[O-])c1Cl (stereo not drawn) [Example 3-297] | – | – | 100 | – | 100 | 100 | 100 | 100 | 90 | – | – | – |
| Cn1nnnc1NC(=O)c1ccc(C(F)(F)F)c(C[S+](C)[O-])c1Br (stereo not drawn) [Example 1-381] | – | – | 100 | – | 100 | 100 | 100 | 100 | 100 | – | 80 | – |
| CCn1nnnc1NC(=O)c1ccc(C(F)(F)F)c(CSC)c1SC [Example 2-161] | – | – | 100 | – | 100 | 100 | 90 | 100 | 90 | – | – | – |
| Cn1nnnc1NC(=O)c1ccc(C(F)(F)F)c(C[S+](C)[O-])c1Cl (racemic) [Example 1-297] | – | – | 100 | – | 100 | 100 | 100 | 100 | 100 | – | – | 80 |
